Experimental data: the supplement of paper PMC10307832

What was measured:
Assay in all cases: relative viability (nuclei count vs DMSO), 5 days (fraction); higher = more cells survive
Serdemetan + Foretinib = compound: c1ccc2c(CCNc3ccc(Nc4ccncc4)cc3)c[nH]c2c1 [Serdemetan] + COc1cc2c(Oc3ccc(NC(=O)C4(C(=O)Nc5ccc(F)cc5)CC4)cc3F)ccnc2cc1OCCCN1CCOCC1 [Foretinib] (partner 0.25 µM)
Summary of the method: (§1)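 Lung cancer cell lines were pin-tool dosed in 1536-well plates on the day after seeding, with either a lone drug or a fixed anchor-drug dose plus five library-drug doses (not always all listed) in √10 steps. Nuclei were counted on 4× images after 5 days. Relative viability is the ratio of treated-well to vehicle-well nuclei counts, with each value a median of duplicate plates.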

Serdemetan + Phenformin = compound: c1ccc2c(CCNc3ccc(Nc4ccncc4)cc3)c[nH]c2c1 [Serdemetan] + N=C(N)NC(=N)NCCc1ccccc1 [Phenformin] (partner 250 µM)
Summary of the method: as §1

Selisistat + Dasatinib = compound: C1CC(C2=C(C1)C3=C(N2)C=CC(=C3)Cl)C(=O)N [Selisistat] + Cc1nc(Nc2ncc(C(=O)Nc3c(C)cccc3Cl)s2)cc(N2CCN(CCO)CC2)n1 [Dasatinib] (partner 0.075 µM)
Summary of the method: as §1

Selisistat + Alpelisib = compound: C1CC(C2=C(C1)C3=C(N2)C=CC(=C3)Cl)C(=O)N [Selisistat] + Cc1nc(NC(=O)N2CCC[C@H]2C(N)=O)sc1-c1ccnc(C(C)(C)C(F)(F)F)c1 [Alpelisib] (partner 2 µM)
Summary of the method: as §1

## NCI-H322M
Serdemetan + Foretinib; first compound 0.04 µM
  relative viability: 0.946
Serdemetan + Foretinib; first compound 0.1265 µM
  relative viability: 0.887
Serdemetan + Foretinib; first compound 0.4 µM
  relative viability: 0.909
Serdemetan + Foretinib; first compound 1.265 µM
  relative viability: 0.963
Serdemetan + Foretinib; first compound 4 µM
  relative viability: 0.481
Serdemetan + Phenformin; first compound 0.04 µM
  relative viability: 0.667
Serdemetan + Phenformin; first compound 0.1265 µM
  relative viability: 0.788
Serdemetan + Phenformin; first compound 0.4 µM
  relative viability: 0.774
Serdemetan + Phenformin; first compound 1.265 µM
  relative viability: 0.718
Serdemetan + Phenformin; first compound 4 µM
  relative viability: 0.706
Selisistat + Dasatinib; first compound 0.4 µM
  relative viability: 0.266
Selisistat + Dasatinib; first compound 1.265 µM
  relative viability: 0.259
Selisistat + Dasatinib; first compound 4 µM
  relative viability: 0.243
Selisistat + Dasatinib; first compound 12.65 µM
  relative viability: 0.26
Selisistat + Dasatinib; first compound 40 µM
  relative viability: 0.26
Selisistat + Alpelisib; first compound 0.4 µM
  relative viability: 0.932
Selisistat + Alpelisib; first compound 1.265 µM
  relative viability: 0.934
Selisistat + Alpelisib; first compound 12.65 µM
  relative viability: 0.734
Selisistat + Alpelisib; first compound 40 µM
  relative viability: 0.819

## NCI-H358
Serdemetan + Foretinib; first compound 0.04 µM
  relative viability: 0.641
Serdemetan + Foretinib; first compound 0.1265 µM
  relative viability: 0.773
Serdemetan + Foretinib; first compound 0.4 µM
  relative viability: 0.732
Serdemetan + Foretinib; first compound 1.265 µM
  relative viability: 0.549
Serdemetan + Foretinib; first compound 4 µM
  relative viability: 0.477
Serdemetan + Phenformin; first compound 0.04 µM
  relative viability: 0.302
Serdemetan + Phenformin; first compound 0.1265 µM
  relative viability: 0.324
Serdemetan + Phenformin; first compound 0.4 µM
  relative viability: 0.273
Serdemetan + Phenformin; first compound 1.265 µM
  relative viability: 0.286
Serdemetan + Phenformin; first compound 4 µM
  relative viability: 0.308
Selisistat + Dasatinib; first compound 0.4 µM
  relative viability: 0.201
Selisistat + Dasatinib; first compound 1.265 µM
  relative viability: 0.158
Selisistat + Dasatinib; first compound 4 µM
  relative viability: 0.114
Selisistat + Dasatinib; first compound 12.65 µM
  relative viability: 0.235
Selisistat + Dasatinib; first compound 40 µM
  relative viability: 0.226
Selisistat + Alpelisib; first compound 0.4 µM
  relative viability: 0.865
Selisistat + Alpelisib; first compound 1.265 µM
  relative viability: 0.942
Selisistat + Alpelisib; first compound 12.65 µM
  relative viability: 0.932
Selisistat + Alpelisib; first compound 40 µM
  relative viability: 0.912

## NCI-H441
Serdemetan + Foretinib; first compound 0.04 µM
  relative viability: 1.05
Serdemetan + Foretinib; first compound 0.1265 µM
  relative viability: 0.918
Serdemetan + Foretinib; first compound 0.4 µM
  relative viability: 0.981
Serdemetan + Foretinib; first compound 1.265 µM
  relative viability: 0.99
Serdemetan + Foretinib; first compound 4 µM
  relative viability: 0.872
Serdemetan + Phenformin; first compound 0.04 µM
  relative viability: 0.793
Serdemetan + Phenformin; first compound 0.1265 µM
  relative viability: 0.917
Serdemetan + Phenformin; first compound 0.4 µM
  relative viability: 0.791
Serdemetan + Phenformin; first compound 1.265 µM
  relative viability: 0.709
Serdemetan + Phenformin; first compound 4 µM
  relative viability: 0.517
Selisistat + Dasatinib; first compound 0.4 µM
  relative viability: 0.623
Selisistat + Dasatinib; first compound 1.265 µM
  relative viability: 0.671
Selisistat + Dasatinib; first compound 4 µM
  relative viability: 0.427
Selisistat + Dasatinib; first compound 12.65 µM
  relative viability: 0.549
Selisistat + Dasatinib; first compound 40 µM
  relative viability: 0.62
Selisistat + Alpelisib; first compound 0.4 µM
  relative viability: 0.804
Selisistat + Alpelisib; first compound 1.265 µM
  relative viability: 0.64
Selisistat + Alpelisib; first compound 12.65 µM
  relative viability: 0.691
Selisistat + Alpelisib; first compound 40 µM
  relative viability: 0.707

## NCI-H460
Serdemetan + Foretinib; first compound 0.04 µM
  relative viability: 0.895
Serdemetan + Foretinib; first compound 0.1265 µM
  relative viability: 1.01
Serdemetan + Foretinib; first compound 0.4 µM
  relative viability: 0.883
Serdemetan + Foretinib; first compound 1.265 µM
  relative viability: 0.597
Serdemetan + Foretinib; first compound 4 µM
  relative viability: 0.104
Serdemetan + Phenformin; first compound 0.04 µM
  relative viability: 0.47
Serdemetan + Phenformin; first compound 0.1265 µM
  relative viability: 0.505
Serdemetan + Phenformin; first compound 0.4 µM
  relative viability: 0.446
Serdemetan + Phenformin; first compound 1.265 µM
  relative viability: 0.145
Serdemetan + Phenformin; first compound 4 µM
  relative viability: 0.09
Selisistat + Dasatinib; first compound 0.4 µM
  relative viability: 0.61
Selisistat + Dasatinib; first compound 1.265 µM
  relative viability: 0.513
Selisistat + Dasatinib; first compound 4 µM
  relative viability: 0.196
Selisistat + Dasatinib; first compound 12.65 µM
  relative viability: 0.478
Selisistat + Dasatinib; first compound 40 µM
  relative viability: 0.477
Selisistat + Alpelisib; first compound 0.4 µM
  relative viability: 0.517
Selisistat + Alpelisib; first compound 1.265 µM
  relative viability: 0.54
Selisistat + Alpelisib; first compound 12.65 µM
  relative viability: 0.403
Selisistat + Alpelisib; first compound 40 µM
  relative viability: 0.35

## NCI-H520
Serdemetan + Foretinib; first compound 0.04 µM
  relative viability: 0.668
Serdemetan + Foretinib; first compound 0.1265 µM
  relative viability: 0.737
Serdemetan + Foretinib; first compound 0.4 µM
  relative viability: 0.874
Serdemetan + Foretinib; first compound 4 µM
  relative viability: 0.511
Serdemetan + Phenformin; first compound 0.04 µM
  relative viability: 0.513
Serdemetan + Phenformin; first compound 0.1265 µM
  relative viability: 0.657
Serdemetan + Phenformin; first compound 0.4 µM
  relative viability: 0.596
Serdemetan + Phenformin; first compound 4 µM
  relative viability: 0.38
Selisistat + Dasatinib; first compound 0.4 µM
  relative viability: 0.185
Selisistat + Dasatinib; first compound 1.265 µM
  relative viability: 0.201
Selisistat + Dasatinib; first compound 4 µM
  relative viability: 0.327
Selisistat + Dasatinib; first compound 12.65 µM
  relative viability: 0.216
Selisistat + Dasatinib; first compound 40 µM
  relative viability: 0.195
Selisistat + Alpelisib; first compound 0.4 µM
  relative viability: 0.762
Selisistat + Alpelisib; first compound 1.265 µM
  relative viability: 0.736
Selisistat + Alpelisib; first compound 4 µM
  relative viability: 1.07
Selisistat + Alpelisib; first compound 12.65 µM
  relative viability: 0.957
Selisistat + Alpelisib; first compound 40 µM
  relative viability: 0.73

## NCI-H596
Serdemetan + Foretinib; first compound 0.04 µM
  relative viability: 0.87
Serdemetan + Foretinib; first compound 0.1265 µM
  relative viability: 0.703
Serdemetan + Foretinib; first compound 0.4 µM
  relative viability: 0.684
Serdemetan + Foretinib; first compound 1.265 µM
  relative viability: 0.355
Serdemetan + Foretinib; first compound 4 µM
  relative viability: 0.402
Serdemetan + Phenformin; first compound 0.04 µM
  relative viability: 0.812
Serdemetan + Phenformin; first compound 0.1265 µM
  relative viability: 0.692
Serdemetan + Phenformin; first compound 0.4 µM
  relative viability: 0.735
Serdemetan + Phenformin; first compound 1.265 µM
  relative viability: 0.63
Serdemetan + Phenformin; first compound 4 µM
  relative viability: 0.438
Selisistat + Dasatinib; first compound 0.4 µM
  relative viability: 0.673
Selisistat + Dasatinib; first compound 1.265 µM
  relative viability: 0.53
Selisistat + Dasatinib; first compound 4 µM
  relative viability: 0.493
Selisistat + Dasatinib; first compound 12.65 µM
  relative viability: 0.707
Selisistat + Dasatinib; first compound 40 µM
  relative viability: 0.545
Selisistat + Alpelisib; first compound 0.4 µM
  relative viability: 0.587
Selisistat + Alpelisib; first compound 1.265 µM
  relative viability: 0.482
Selisistat + Alpelisib; first compound 4 µM
  relative viability: 0.42
Selisistat + Alpelisib; first compound 12.65 µM
  relative viability: 0.502
Selisistat + Alpelisib; first compound 40 µM
  relative viability: 0.482

## NCI-H647
Serdemetan + Foretinib; first compound 0.04 µM
  relative viability: 1.2
Serdemetan + Foretinib; first compound 0.1265 µM
  relative viability: 1.15
Serdemetan + Foretinib; first compound 0.4 µM
  relative viability: 1.1
Serdemetan + Foretinib; first compound 1.265 µM
  relative viability: 1.17
Serdemetan + Foretinib; first compound 4 µM
  relative viability: 0.801
Serdemetan + Phenformin; first compound 0.04 µM
  relative viability: 0.583
Serdemetan + Phenformin; first compound 0.1265 µM
  relative viability: 0.669
Serdemetan + Phenformin; first compound 0.4 µM
  relative viability: 0.511
Serdemetan + Phenformin; first compound 1.265 µM
  relative viability: 0.288
Serdemetan + Phenformin; first compound 4 µM
  relative viability: 0.335
Selisistat + Dasatinib; first compound 0.4 µM
  relative viability: 0.229
Selisistat + Dasatinib; first compound 1.265 µM
  relative viability: 0.186
Selisistat + Dasatinib; first compound 4 µM
  relative viability: 0.176
Selisistat + Dasatinib; first compound 12.65 µM
  relative viability: 0.154
Selisistat + Dasatinib; first compound 40 µM
  relative viability: 0.218
Selisistat + Alpelisib; first compound 0.4 µM
  relative viability: 1.1
Selisistat + Alpelisib; first compound 1.265 µM
  relative viability: 1.03
Selisistat + Alpelisib; first compound 12.65 µM
  relative viability: 1.09
Selisistat + Alpelisib; first compound 40 µM
  relative viability: 1.31

## NCI-H650
Serdemetan + Foretinib; first compound 0.04 µM
  relative viability: 0.986
Serdemetan + Foretinib; first compound 0.1265 µM
  relative viability: 1.01
Serdemetan + Foretinib; first compound 0.4 µM
  relative viability: 1.08
Serdemetan + Foretinib; first compound 1.265 µM
  relative viability: 0.936
Serdemetan + Foretinib; first compound 4 µM
  relative viability: 0.777
Serdemetan + Phenformin; first compound 0.04 µM
  relative viability: 0.417
Serdemetan + Phenformin; first compound 0.1265 µM
  relative viability: 0.44
Serdemetan + Phenformin; first compound 0.4 µM
  relative viability: 0.506
Serdemetan + Phenformin; first compound 1.265 µM
  relative viability: 0.403
Serdemetan + Phenformin; first compound 4 µM
  relative viability: 0.481
Selisistat + Dasatinib; first compound 0.4 µM
  relative viability: 0.427
Selisistat + Dasatinib; first compound 1.265 µM
  relative viability: 0.469
Selisistat + Dasatinib; first compound 4 µM
  relative viability: 0.52
Selisistat + Dasatinib; first compound 12.65 µM
  relative viability: 0.382
Selisistat + Dasatinib; first compound 40 µM
  relative viability: 0.493
Selisistat + Alpelisib; first compound 0.4 µM
  relative viability: 1.38
Selisistat + Alpelisib; first compound 4 µM
  relative viability: 1.47
Selisistat + Alpelisib; first compound 12.65 µM
  relative viability: 1.06
Selisistat + Alpelisib; first compound 40 µM
  relative viability: 1.15

## NCI-H661
Serdemetan + Foretinib; first compound 0.04 µM
  relative viability: 1
Serdemetan + Foretinib; first compound 0.1265 µM
  relative viability: 1.01
Serdemetan + Foretinib; first compound 0.4 µM
  relative viability: 1.02
Serdemetan + Foretinib; first compound 1.265 µM
  relative viability: 0.924
Serdemetan + Foretinib; first compound 4 µM
  relative viability: 0.796
Serdemetan + Phenformin; first compound 0.04 µM
  relative viability: 0.283
Serdemetan + Phenformin; first compound 0.1265 µM
  relative viability: 0.303
Serdemetan + Phenformin; first compound 0.4 µM
  relative viability: 0.254
Serdemetan + Phenformin; first compound 1.265 µM
  relative viability: 0.246
Serdemetan + Phenformin; first compound 4 µM
  relative viability: 0.281
Selisistat + Dasatinib; first compound 0.4 µM
  relative viability: 0.806
Selisistat + Dasatinib; first compound 1.265 µM
  relative viability: 0.94
Selisistat + Dasatinib; first compound 4 µM
  relative viability: 0.57
Selisistat + Dasatinib; first compound 12.65 µM
  relative viability: 0.726
Selisistat + Dasatinib; first compound 40 µM
  relative viability: 0.694
Selisistat + Alpelisib; first compound 0.4 µM
  relative viability: 0.766
Selisistat + Alpelisib; first compound 1.265 µM
  relative viability: 0.675
Selisistat + Alpelisib; first compound 4 µM
  relative viability: 0.555
Selisistat + Alpelisib; first compound 12.65 µM
  relative viability: 0.508
Selisistat + Alpelisib; first compound 40 µM
  relative viability: 0.546
